Experiments:
[1] = Test F: in vitro (liver microsome) stability, human liver microsomes; assay type: in vitro ADME; settings: liver microsomes from humans, NADPH, 37° C.
Experimental: (§1) Determination of In Vitro (Liver Microsome) Stability
(§2) Liver microsomes are prepared from Sprague-Dawley rats and human liver samples according to internal SOPs. The compounds are incubated at 37° C. at a total microsome protein concentration of 0.5 mg/mL in a 0.1 mol/L potassium phosphate buffer at pH 7.4, in the presence of the cofactor, NADPH (1.0 mmol/L). The initial concentration of compound is 1.0 μmol/L. Samples are taken for analysis at 5 time points, 0, 7, 15, 20 and 30 minutes after the start of the incubation. The enzymatic activity in the collected sample is immediately stopped by adding an equal volume of acetonitrile containing 0.8% formic acid. The concentration of compound remaining in each of the collected samples is determined by means of LC-MS/MS. The elimination rate constant (k) of the thrombin inhibitor is calculated as the slope of the plot of ln[Thrombin inhibitor] against incubation time (minutes). The elimination rate constant is then used to calculate the half-life (T1/2) of the thrombin inhibitor, which is subsequently used to calculate the intrinsic clearance (CLint) of the thrombin inhibitor in liver microsomes as: […]

[2] = Test F: in vitro (liver microsome) stability, rat liver microsomes; assay type: in vitro ADME, Sprague-Dawley rats; settings: liver microsomes from rats, NADPH, 37° C.
Experimental: as §1, §2

SMILES | conversion to the corresponding active inhibitor (title compound of Example 1) [1] | conversion to the corresponding active inhibitor (title compound of Example 1) [2]
CC(=O)OCc1nc(N)cc(C)c1CNC(=O)CC1=C(C)CCN(NCC(F)(F)c2ccccn2)C1=O [Example 2, (6-Amino-3-{[({1-[(2,2-difluoro-2-pyridin-2-ylethyl)amino]-4-methyl-2-oxo-1,2,5,6-tetrahydropyridin-3-yl}acetyl)amino]methyl}-4-methylpyridin-2-yl)-methyl acetate] | converted to the corresponding active inhibitor | converted to the corresponding active inhibitor
CC1=C(CC(=O)NCc2c(C)cc(N)nc2COC(=O)c2ccccc2)C(=O)N(NCC(F)(F)c2ccccn2)CC1 [Example 3, (6-Amino-3-{[({1-[(2,2-difluoro-2-pyridin-2-ylethyl)amino]-4-methyl-2-oxo-1,2,5,6-tetrahydropyridin-3-yl}acetyl)amino]methyl}-4-methylpyridin-2-yl)-methyl benzoate] | converted to the corresponding active inhibitor | converted to the corresponding active inhibitor

— patent US20080207695A1, “Thrombin Inhibiting 2-Oxo-1,2,5,6-Tetrahydropyridine Derivatives” (ASTRAZENECA AB, priority 2005, published 2008)
